{"source": "patent US20110053933A1", "about": "“HYDROXYQUINOXALINECARBOXAMIDE DERIVATIVE” (DAIICHI SANKYO COMPANY, LIMITED, priority 2008, published 2011)"}
{"test_system": "γ-glutamyl carboxylation reaction (human Gas6 in Gas6-HEK293 cells)", "test": "Inhibitory action on γ-glutamyl carboxylation reaction (secreted γ-glutamyl carboxylated Gas6 by ELISA)", "assay_type": "cell-based", "details": "vitamin K2 100 nM, exposure 18 to 20 hours, ELISA absorbance at 620 nm, read-out: IC50 (50% inhibitory concentration for the γ-glutamyl carboxylation reaction)", "protocol": "Measurement of Inhibitory Action on γ-Glutamyl Carboxylation Reaction\nCells were used that expressed Gas6 excreted outside the cells when subjected to γ-glutamyl carboxylation, and inhibitory action on γ-glutamyl carboxylation reaction was assessed by measuring the secreted amount of extracellular Gas6 by ELISA method.\n(A) Preparation for Assay Plate Containing Solid-Phase Anti-Human Gas6 Antibody\nGoat anti-human Gas6 antibody (R&D Systems, Inc.) was diluted to 1 μg/ml with Dulbecco's phosphate-buffered saline, and 40 μl aliquots thereof were dispensed into each well of a 384-well microplate. After immobilizing the antibody to the solid phase by allowing it to stand at 4° C. overnight or at room temperature for 2 hours or more, each well was washed three times with wash buffer (10 mM Tris-HCl pH 7.4, 150 mM sodium chloride, 0.05% Tween20). After removing the supernatant, 80 μl aliquots of a 1% aqueous solution of Block Ace (Dainippon Sumitomo Pharma) were dispensed into each well and allowed to react at room temperature for 1 hour or more.\n(B) Exposure of Test Compounds to Cells Stably Expressing Human Gas6\nCells that stably express human Gas6 (Gas6-HEK293), which were prepared by inserting human Gas6 gene (inserted between SalI and NotI within multiple cloning sites of pCIneo expression vector) into HEK293 cells, were grown and sub-cultured using Dulbecco's modified Eagle's medium (DMEM) containing 10% fetal calf serum (FCS). On the day before ELISA measurement, the Gas6-HEK293 cells were detached with trypsin-EDTA, dispersed in DMEM containing 10% FCS, and disseminated into each well of a 384-well, collagen type I-coated plate (Becton-Dickinson) in 30 μl aliquots containing 1.0×10^4 cells each, followed by culturing for 3 to 4 hours at 5% CO2 and 37° C. 30 μl aliquots of DMEM containing test compound solutions, prepared at various concentrations by dissolving in DMSO, and vitamin K2 at 0.1% and 100 nM, respectively (indicating final concentrations in both cases) were added to each well followed by additionally culturing for 18 to 20 hours.\n(C) Quantification of γ-Glutamyl Carboxylated Gas6 by ELISA and Calculation of 50% Inhibitory Concentrations of γ-Glutamyl Carboxylation Reaction\nAfter removing the 1% Block Ace aqueous solution from the preliminarily prepared assay plates containing solid phase anti-human Gas6 antibody, the culture supernatant of Gas6-HEK293 cells exposed to the test compounds was collected and 40 μl aliquots were dispensed into each well followed by allowing to react at room temperature for 2 hours (Step 1). The culture supernatant was removed and each well was washed three times with wash buffer. Thereafter, the same washing procedure was carried out between Steps 2 and 3 and Steps 3 and 4. Subsequently, 40 μl aliquots of mouse anti-human […] antibody (American Diagnostica inc.), adjusted to 0.5 μg/ml with immunoreaction buffer (100 mM Tris-HCl pH 7.4, 0.05% Tween20, 0.1% Block Ace), were dispensed into each well and allowed to react at room temperature for 1 hour (Step 2). Next, 40 μl aliquots of alkaline phosphatase-conjugated anti-mouse IgG antibody adjusted to 1.0 μg/ml with immunoreaction buffer were dispensed into each well and allowed to react at room temperature for 1 hour (Step 3). 40 μl aliquots of BluePhos Microwell (KPL) were dispensed into each well, and after incubating at room temperature for 10 minutes (Step 4), 20 μl aliquots of 5% EDTA were added to each well to stop the color development reaction, followed by measurement of absorbance at 620 nm (Step 5). […]", "units": {"IC50": "nM"}}
{"compound": "CC(C)[C@H](NC(=O)c1nc2ccccc2nc1O)C(=O)N1CCC(Sc2ccc(F)cc2)CC1", "note": "[Example 45, N-[(1S)-1-({4-[(4-Fluorophenyl)thio]piperidin-1-yl}carbonyl)-2-methylpropyl]-3-hydroxyquinoxaline-2-carboxamide]", "IC50": 1.3}
{"compound": "CC(C)[C@H](NC(=O)c1nc2ccccc2nc1O)C(=O)N1CCC(C(=O)c2ccc(F)cc2)CC1", "note": "[Example 61, N-[(1S)-1-{[4-(4-Fluorobenzoyl)piperidin-1-yl]carbonyl}-2-methylpropyl]-3-hydroxyquinoxaline-2-carboxamide]", "IC50": 5.1}
{"compound": "O=C(N[C@H](C(=O)N1CCC(Oc2ccc(F)cn2)CC1)C1CC1)c1nc2ccccc2nc1O", "note": "[Example 14, N-[(1S)-1-Cyclopropyl-2-{4-[(5-fluoropyridin-2-yl)oxy]piperidin-1-yl}-2-oxoethyl]-3-hydroxyquinoxaline-2-carboxamide]", "IC50": 25}
{"compound": "CC[C@H](NC(=O)c1nc2ccccc2nc1O)C(=O)N1CCC(Oc2ccc(F)cc2)CC1", "note": "[Example 8, N-[(1S)-1-{[4-(4-Fluorophenoxy)piperidin-1-yl]carbonyl}propyl]-3-hydroxyquinoxaline-2-carboxamide]", "IC50": 1.8}
{"compound": "C[C@H](NC(=O)c1nc2ccccc2nc1O)C(=O)N1CCC(Oc2ccc(F)cn2)CC1", "note": "[Example 6, N-[(1S)-2-{4-[(5-Fluoropyridin-2-yl)oxy]piperidin-1-yl}-1-methyl-2-oxoethyl]-3-hydroxyquinoxaline-2-carboxamide]", "IC50": 74}
{"compound": "CC(C)[C@H](NC(=O)c1nc2ccccc2nc1O)C(=O)N1CCC(Oc2ncc(F)cc2F)CC1", "note": "[Example 49, N-[(1S)-1-({4-[(3,5-Difluoropyridin-2-yl)oxy]piperidin-1-yl]carbonyl)-2-methylpropyl}-3-hydroxyquinoxaline-2-carboxamide]", "IC50": 4.3}
{"compound": "Cc1nc2ccc(OC3CCN(C(=O)[C@@H](NC(=O)c4nc5ccccc5nc4O)C(C)C)CC3)cc2s1", "note": "[Example 91, 3-Hydroxy-N-[(1S)-2-methyl-1-({4-[(2-methyl-1,3-benzothiazol-6-yl)oxy]piperidin-1-yl}carbonyl)propyl]quinoxaline-2-carboxamide]", "IC50": 3.8}
{"compound": "CC(C)[C@H](NC(=O)c1nc2ccccc2nc1O)C(=O)N1CCC(Oc2cnc(-c3ccccc3)nc2)CC1", "note": "[Example 81, 3-Hydroxy-N-[(1S)-2-methyl-1-({4-[(2-phenylpyrimidin-5-yl)oxy]piperidin-1-yl}carbonyl)propyl]quinoxaline-2-carboxamide]", "IC50": 4.6}
{"compound": "CC[C@H](NC(=O)c1nc2ccccc2nc1O)C(=O)N1CCC(Oc2ccc(F)cn2)CC1", "note": "[Example 12, N-[(1S)-1-({4-[(5-Fluoropyridin-2-yl)oxy]piperidin-1-yl}carbonyl)propyl]-3-hydroxyquinoxaline-2-carboxamide]", "IC50": 4.2}
{"compound": "CC(C)[C@H](NC(=O)c1nc2ccccc2nc1O)C(=O)N1CCC(Oc2ccc(C(F)(F)F)nc2)CC1", "note": "[Example 84, 3-Hydroxy-N-{(1S)-2-methyl-1-[(4-{[6-(trifluoromethyl)pyridin-3-yl]oxy}piperidin-1-yl)carbonyl]propyl}quinoxaline-2-carboxamide]", "IC50": 5.5}
{"compound": "CC(C)[C@H](NC(=O)c1nc2ccccc2nc1O)C(=O)N1CCC(N(C)c2ccc(F)cn2)CC1", "note": "[Example 35, N-[(1S)-1-({4-[(5-Fluoropyridin-2-yl)(methyl)amino]piperidin-1-yl}carbonyl)-2-methylpropyl]-3-hydroxyquinoxaline-2-carboxamide]", "IC50": "< 0.6"}
{"compound": "C[C@H](NC(=O)c1nc2ccccc2nc1O)C(=O)N1CCC(Oc2ccc(OC(F)(F)F)cc2)CC1", "note": "[Example 4, 3-Hydroxy-N-[(1S)-1-methyl-2-oxo-2-{4-[4-(trifluoromethoxy)phenoxy]piperidin-1-yl}ethyl]quinoxaline-2-carboxamide]", "IC50": 4.7}
{"compound": "CC(C)[C@H](NC(=O)c1nc2ccccc2nc1O)C(=O)N1CCC(Oc2ccc(OC(F)(F)F)cc2)CC1", "note": "[Example 18, 3-Hydroxy-N-[(1S)-2-methyl-1-({4-[4-(trifluoromethoxy)phenoxy]piperidin-1-yl}carbonyl)propyl]quinoxaline-2-carboxamide]", "IC50": 2.9}
{"compound": "CC(C)[C@H](NC(=O)c1nc2ccccc2nc1O)C(=O)N1CCC(Oc2ccc(Cl)cc2)CC1", "note": "[Example 15, N-[(1S)-1-{[4-(4-Chlorophenoxy)piperidin-1-yl]carbonyl}-2-methylpropyl]-3-hydroxyquinoxaline-2-carboxamide]", "IC50": 18}
{"compound": "CC(C)[C@H](NC(=O)c1nc2ccccc2nc1O)C(=O)N1CCC(Oc2ncc(-c3ccccc3)cn2)CC1", "note": "[Example 80, 3-Hydroxy-N-[(1S)-2-methyl-1-({4-[(5-phenylpyrimidin-2-yl)oxy]piperidin-1-yl}carbonyl)propyl]quinoxaline-2-carboxamide]", "IC50": 7.1}
{"compound": "CC(C)[C@H](NC(=O)c1nc2ccccc2nc1O)C(=O)N1CCC(Oc2ccc(C(F)(F)F)cn2)CC1", "note": "[Example 36, 3-Hydroxy-N-{(1S)-2-methyl-1-[(4-{[5-(trifluoromethyl)pyridin-2-yl]oxy}piperidin-1-yl)carbonyl]propyl}quinoxaline-2-carboxamide]", "IC50": 1.8}
{"compound": "C[C@H](NC(=O)c1nc2ccccc2nc1O)C(=O)N1CCC(Oc2ccc(F)cc2F)CC1", "note": "[Example 3, N-{(1S)-2-[4-(2,4-Difluorophenoxy)piperidin-1-yl]-1-methyl-2-oxoethyl}-3-hydroxyquinoxaline-2-carboxamide]", "IC50": 3.5}
{"compound": "CC(C)[C@H](NC(=O)c1nc2ccccc2nc1O)C(=O)N1CCC(C(=O)c2ccc(F)cc2F)CC1", "note": "[Example 98, N-[(1S)-1-{[4-(2,4-Difluorobenzoyl)piperidin-1-yl]carbonyl}-2-methylpropyl]-3-hydroxyquinoxaline-2-carboxamide]", "IC50": 3.5}
{"compound": "CC(C)[C@H](NC(=O)c1nc2ccccc2nc1O)C(=O)N1CCC(Oc2ccc(F)cc2Br)CC1", "note": "[Example 21, N-[(1S)-1-{[4-(2-Bromo-4-fluorophenoxy)piperidin-1-yl]carbonyl}-2-methylpropyl]-3-hydroxyquinoxaline-2-carboxamide]", "IC50": 0.89}
{"compound": "CC(C)[C@H](NC(=O)c1nc2ccccc2nc1O)C(=O)N1CCC(Oc2ncc(Br)cn2)C(C)(C)C1", "note": "(stereo partly drawn) [Example 82, N-[(1S)-1-({4-[(5-Bromopyrimidin-2-yl)oxy]-3,3-dimethylpiperidin-1-yl}carbonyl)-2-methylpropyl]-3-hydroxyquinoxaline-2-carboxamide]", "IC50": 4.6}
{"compound": "CC(C)[C@H](NC(=O)c1nc2ccccc2nc1O)C(=O)N1CCC(Oc2ncc(N3CCCCC3)cn2)CC1", "note": "[Example 96, 3-Hydroxy-N-[(1S)-2-methyl-1-({4-[(5-piperidin-1-ylpyrimidin-2-yl)oxy]piperidin-1-yl}carbonyl)propyl]quinoxaline-2-carboxamide]", "IC50": 9.6}
{"compound": "CC(C)[C@H](NC(=O)c1nc2ccccc2nc1O)C(=O)N1CCC(Nc2ccc(F)cn2)CC1", "note": "[Example 34, N-[(1S)-1-({4-[(5-Fluoropyridin-2-yl)amino]piperidin-1-yl}carbonyl)-2-methylpropyl]-3-hydroxyquinoxaline-2-carboxamide]", "IC50": 12}
{"compound": "C[C@H](NC(=O)c1nc2ccccc2nc1O)C(=O)N1CCC(Oc2ccc(F)cc2)CC1", "note": "[Example 2, N-{(1S)-2-[4-(4-Fluorophenoxy)piperidin-1-yl]-1-methyl-2-oxoethyl}-3-hydroxyquinoxaline-2-carboxamide]", "IC50": 6.6}
{"compound": "C[C@H](NC(=O)c1nc2ccccc2nc1O)C(=O)N1CCC(Oc2ccc(Cl)cc2)CC1", "note": "[Example 1, N-{(1S)-2-[4-(4-Chlorophenoxy)piperidin-1-yl]-1-methyl-2-oxoethyl}-3-hydroxyquinoxaline-2-carboxamide]", "IC50": 8.4}
{"compound": "CC(C)[C@H](NC(=O)c1nc2ccccc2nc1O)C(=O)N1CCC(Oc2ncc(C(F)(F)F)cn2)CC1", "note": "[Example 94, 3-Hydroxy-N-{(1S)-2-methyl-1-[(4-{[5-(trifluoromethyl)pyrimidin-2-yl]oxy}piperidin-1-yl)carbonyl]propyl}quinoxaline-2-carboxamide]", "IC50": 2.7}
